Structures can show the parent of a compound that is named as a salt.
Molecular target: T1, Recombinant Human SSAO/VAP-1/AOC3 (Homo sapiens, UniProt Q16853)
T1 construct: purchased R&D systems 3957-AO
T1 sequence (Q16853 1-763): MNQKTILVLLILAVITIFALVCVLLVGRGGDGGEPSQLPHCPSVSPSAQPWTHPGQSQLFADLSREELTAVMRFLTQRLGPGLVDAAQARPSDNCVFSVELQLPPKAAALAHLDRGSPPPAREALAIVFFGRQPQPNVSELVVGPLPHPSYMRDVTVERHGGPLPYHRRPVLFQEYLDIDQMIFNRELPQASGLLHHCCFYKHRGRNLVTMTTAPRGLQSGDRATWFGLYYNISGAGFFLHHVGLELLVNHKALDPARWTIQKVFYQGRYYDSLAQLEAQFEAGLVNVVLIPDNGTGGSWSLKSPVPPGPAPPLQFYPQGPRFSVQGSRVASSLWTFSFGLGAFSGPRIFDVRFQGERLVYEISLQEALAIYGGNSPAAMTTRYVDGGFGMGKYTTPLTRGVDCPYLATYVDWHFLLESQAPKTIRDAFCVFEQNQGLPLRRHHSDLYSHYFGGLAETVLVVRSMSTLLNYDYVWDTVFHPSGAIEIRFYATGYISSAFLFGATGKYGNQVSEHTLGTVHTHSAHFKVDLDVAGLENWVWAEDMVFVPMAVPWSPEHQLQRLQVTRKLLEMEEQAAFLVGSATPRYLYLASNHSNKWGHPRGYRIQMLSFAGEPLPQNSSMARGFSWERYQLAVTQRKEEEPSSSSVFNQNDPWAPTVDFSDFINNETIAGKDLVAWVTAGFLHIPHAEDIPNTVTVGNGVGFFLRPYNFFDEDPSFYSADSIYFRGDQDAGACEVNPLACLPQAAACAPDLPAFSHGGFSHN
Test: Human Semicarbazide-Sensitive Amine Oxidase (SSAO) Assay
Type: biochemical
Details: recombinant enzyme, 30 minutes preincubation at 37° C., benzylamine substrate, Amplex Ultra Red/HRP fluorescence
Procedure, shortened: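 Recombinant human SSAO/VAP-1 (2.5 μg/ml working stock in 50 mM HEPES) preincubated with compound 30 min at 37 °C over a 6-10 point CRC. Benzylamine substrate starts the reaction. H2O2 read kinetically over 30-120 min via Amplex Ultra Red/HRP fluorescence (ex 544/em 590 nm) to derive IC50.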

How did the IC50 turn out when `CO[C@H]1C[C@@H](NC(=O)C23CCC(c4ccc(OC/C(=C/F)CN)cc4)(CC2)CC3)C1` [Compound 2.95, 4-(4-(((E)-2-(Aminomethyl)-3-fluoroallyl)oxy)phenyl)-N-(cis-3-methoxycyclobutyl)bicyclo[2.2.2]octane-1-carboxamide Hydrochloride] was run?
The IC50 was at most 10 nM.

With `C[C@H](NC(=O)C12CCC(c3ccc(OC/C(=C/F)CN)cc3)(CC1)CC2)C1CCOCC1` [Compound 2.27, (S,E)-4-(4-((2-(aminomethyl)-3-fluoroallyl)oxy)phenyl)-N-(1-(tetrahydro-2H-pyran-4-yl)ethyl)bicyclo[2.2.2]octane-1-carboxamide] as the molecule, how does the IC50 read?
The IC50 was at most 10 nM.

For `CO[C@H]1C[C@H](CNC(=O)C23CCC(c4ccc(OC/C(=C/F)CN)cc4)(CC2)CC3)C1` [Compound 2.148, 4-(4-(((E)-2-(aminomethyl)-3-fluoroallyl)oxy)phenyl)-N-(((1s,3s)-3-methoxycyclobutyl)methyl) bicyclo[2.2.2]octane-1-carboxamide], which IC50 is on record?
Its IC50 is at most 10 nM.

With `NC/C(=C\F)COc1ccc(C23CCC(NS(=O)(=O)C4CC4)(CC2)CC3)cc1` [Compound 7.03, (E)-N-(4-(4-((2-(aminomethyl)-3-fluoroallyl)oxy)phenyl)bicyclo[2.2.2]octan-1-yl)cyclopropanesulfonamide] as the molecule, how does the IC50 read?
The IC50 was at most 10 nM.

Which IC50 does the source give for `CC1(NC(=O)C23CCC(c4ccc(OC/C(=C/F)CN)cc4)(CC2)CC3)CCOC1` (stereo not shown) [Compound 2.87, (E)-4-(4-((2-(aminomethyl)-3-fluoroallyl)oxy)phenyl)-N-(3-methyltetrahydrofuran-3-yl)bicyclo[2.2.2]octane-1-carboxamide] here?
The IC50 was at most 10 nM.

For `CNC(=O)C1(c2ccc(OC/C(=C/F)CN)cc2)CCCCC1` [Compound 1.01, (E)-1-(4-((2-(Aminomethyl)-3-fluoroallyl)oxy)phenyl)-N-methylcyclohexanecarboxamide], which IC50 is on record?
Its IC50 is 10 to 100 nM.

`NC/C(=C\F)COc1ccc(C23CCC(C(=O)N4CC[C@@H]4CO)(CC2)CC3)cc1` [Compound 2.78, (R,E)-(4-(4-((2-(aminomethyl)-3-fluoroallyl)oxy)phenyl)bicyclo [2.2.2]octan-1-yl)(2-(hydroxymethyl)azetidin-1-yl)methanone] was tested. Which IC50 did it give?
The IC50 was at most 10 nM.

For `COc1ccc(CNC(=O)C23CCC(c4ccc(OC/C(=C/F)CN)cc4)(CC2)CC3)cn1` [Compound 2.141, (E)-4-(4-((2-(aminomethyl)-3-fluoroallyl)oxy)phenyl)-N-((6-methoxpyridin-3-yl)methyl)bicyclo[2.2.2]octane-1-carboxamide], which IC50 is on record?
The IC50 was at most 10 nM.

How did the IC50 turn out when `NC/C(=C\F)COc1ccc([C@]23CC4CC(C2)[C@@H](C(=O)NC2CCOCC2)C(C4)C3)cc1` (single isomer, unassigned) [Compound 6.02, syn-5-(4-(((E)-2-(Aminomethyl)-3-fluoroallyl)oxy)phenyl)-N-(tetrahydro-2H-pyran-4-yl)adamantane-2-carboxamide Hydrochloride] was run?
The IC50 was at most 10 nM.

For `NC/C(=C\F)COc1ccc(C23CCC(C(=O)NC45CCC(O)(CC4)CC5)(CC2)CC3)cc1` [Compound 2.58, (E)-4-(4-((2-(aminomethyl)-3-fluoroallyl)oxy)phenyl)-N-(4-hydroxybicyclo[2.2.2]octan-1-yl)bicyclo[2.2.2]octane-1-carboxamide], which IC50 is on record?
The IC50 was at most 10 nM.

Which IC50 does the source give for `NC/C(=C\F)COc1ccc(C23CCC(C(=O)NC4CCN(CC(F)(F)F)CC4)(CC2)CC3)cc1` [Compound 2.112, (E)-4-(4-((2-(aminomethyl)-3-fluoroallyl)oxy)phenyl)-N-(1-(2,2,2-trifluoroethyl)piperidin-4-yl)bicyclo[2.2.2]octane-1-carboxamide] here?
Its IC50 is at most 10 nM.

With `NC/C(=C\F)COc1ccc(C23CCC(C(=O)N4CC5(CCCCO5)C4)(CC2)CC3)cc1` [Compound 2.143, (E)-(4-(4-((2-(aminomethyl)-3-fluoroallyl)oxy)phenyl)bicyclo [2.2.2]octan-1-yl)(5-oxa-2-azaspiro[3.5]nonan-2-yl)methanone] as the molecule, how does the IC50 read?
The IC50 was at most 10 nM.

With `NC/C(=C\F)COc1ccc(C23CCC(OCC(=O)NC4CCOCC4)(CC2)CC3)cc1` [Compound 8.01, (E)-2-((4-(4-((2-(aminomethyl)-3-fluoroallyl)oxy)phenyl)bicyclo [2.2.2]octan-1-yl)oxy)-N-(tetrahydro-2H-pyran-4-yl)acetamide] as the molecule, how does the IC50 read?
The IC50 was at most 10 nM.

`NC/C(=C\F)CNc1ccc(C23CCC(C(=O)NC4CCOCC4)(CC2)CC3)cc1` [Compound 9, (E)-4-(4-((2-(Aminomethyl)-3-fluoroallyl)amino)phenyl)-N-(tetrahydro-2H-pyran-4-yl)bicyclo[2.2.2]octane-1-carboxamide Hydrochloride] was tested. Which IC50 did it give?
Its IC50 is 10 to 100 nM.

How did the IC50 turn out when `NC/C(=C\F)COc1ccc(C23CCC(C(=O)NCCOC4CCOCC4)(CC2)CC3)cc1` [Compound 2.107] was run?
Its IC50 is at most 10 nM.

How did the IC50 turn out when `NC/C(=C\F)COc1ccc(C23CCC(C(=O)Nc4ccncn4)(CC2)CC3)cc1` [Compound 2.122, (E)-4-(4-((2-(aminomethyl)-3-fluoroallyl)oxy)phenyl)-N-(pyrimidin-4-yl)bicyclo[2.2.2]octane-1-carboxamide] was run?
Its IC50 is at most 10 nM.

How did the IC50 turn out when `COC1CC(NC(=O)C23CCC(c4ccc(OC/C(=C/F)CN)cc4)(CC2)CC3)C1` (stereo not shown) [Compound 2.91, 4-(4-(((E)-2-(aminomethyl)-3-fluoroallyl)oxy)phenyl)-N-((1r,3r)-3-methoxycyclobutyl)bicyclo [2.2.2]octane-1-carboxamide] was run?
The IC50 was at most 10 nM.

How did the IC50 turn out when `CNC(=O)C12CCCC(c3ccc(OC/C(=C/F)CN)cc3)(CC1)CC2` [Compound 10, (E)-5-(4-((2-(Aminomethyl)-3-fluoroallyl)oxy)phenyl)-N-methylbicyclo[3.2.2]nonane-1-carboxamide Hydrochloride] was run?
The IC50 was at most 10 nM.

With `NC/C(=C\F)COc1ccc(C23CCCC(C(=O)NC4CCOCC4)(CC2)C3)cc1` (stereo not shown) [Compound 5.01, 5-(4-(((E)-2-(Aminomethyl)-3-fluoroallyl)oxy)phenyl)-N-(tetrahydro-2H-pyran-4-yl)bicyclo[3.2.1]octane-1-carboxamide Hydrochloride] as the molecule, how does the IC50 read?
Its IC50 is at most 10 nM.

Which IC50 does the source give for `CC1(C)CC(NC(=O)C23CC(c4ccc(OC/C(=C/F)CN)cc4)(C2)C3)CC(C)(C)O1` [Compound 3.02, (E)-3-(4-((2-(aminomethyl)-3-fluoroallyl)oxy)phenyl)-N-(2,2,6,6-tetramethyltetrahydro-2H-pyran-4-yl)bicyclo[1.1.1]pentane-1-carboxamide] here?
Its IC50 is at most 10 nM.

`COc1ccccc1CNC(=O)C12CCC(c3ccc(OC/C(=C/F)CN)cc3)(CC1)CC2` [Compound 2.128, (E)-4-(4-((2-(aminomethyl)-3-fluoroallyl)oxy)phenyl)-N-(2-methoxybenzyl)bicyclo[2.2.2] octane-1-carboxamide] was tested. Which IC50 did it give?
Its IC50 is at most 10 nM.

With `NC/C(=C\F)COc1ccc(C23CCC(C(=O)NCc4ccnnc4)(CC2)CC3)cc1` [Compound 2.139, (E)-4-(4-((2-(aminomethyl)-3-fluoroallyl)oxy)phenyl)-N-(pyridazin-4-ylmethyl)bicyclo[2.2.2]octane-1-carboxamide] as the molecule, how does the IC50 read?
The IC50 was at most 10 nM.

`NC/C(=C\F)COc1ccc(C23CCC(C(=O)NCC(F)F)(CC2)CC3)cc1` [Compound 2.113, (E)-4-(4-((2-(aminomethyl)-3-fluoroallyl)oxy)phenyl)-N-(2,2-difluoroethyl)bicyclo[2.2.2] octane-1-carboxamide] was tested. Which IC50 did it give?
The IC50 was at most 10 nM.

How did the IC50 turn out when `CC(C)NC(=O)C12CC3CC(C1)CC(c1ccc(OC/C(=C/F)CN)cc1)(C3)C2` [Compound 6.04, (E)-3-(4-((2-(aminomethyl)-3-fluoroallyl)oxy)phenyl)-N-isopropyladamantane-1-carboxamide] was run?
The IC50 was at most 10 nM.

How did the IC50 turn out when `NC/C(=C\F)COc1ccc(C23CCC(C(=O)N4CCCOCC4)(CC2)CC3)cc1` [Compound 2.50, (E)-(4-(4-((2-(aminomethyl)-3-fluoroallyl)oxy)phenyl)bicyclo [2.2.2]octan-1-yl)(1,4-oxazepan-4-yl)methanone] was run?
Its IC50 is at most 10 nM.

For `CC(C)NC(=O)C12CCC(c3ccc(OC/C(=C/F)CN)cc3)(CC1)CC2` [Compound 2.23, (E)-4-(4-((2-(aminomethyl)-3-fluoroallyl)oxy)phenyl)-N-isopropylbicyclo [2.2.2]octane-1-carboxamide], which IC50 is on record?
Its IC50 is at most 10 nM.

With `NC/C(=C/F)COc1ccc(C23CCC(C(=O)NC4CCOCC4)(CC2)CC3)cc1` [Compound 2.06b, (Z)-4-(4-((2-(amino-methyl)-3-fluoroally)oxy)phenyl)-N-(tetrahydro-2H-pyran-4-yl)bicyclo[2.2.2]octane-1-carboxamide] as the molecule, how does the IC50 read?
Its IC50 is at most 10 nM.

`NC/C(=C\F)COc1ccc(C23CCC(C(=O)NCCO)(CC2)CC3)cc1` [Compound 2.47, (E)-4-(4-((2-(aminomethyl)-3-fluoroallyl)oxy)phenyl)-N-(2-hydroxyethyl)bicyclo[2.2.2] octane-1-carboxamide] was tested. Which IC50 did it give?
Its IC50 is at most 10 nM.

From patent US20200181104A1, “SSAO INHIBITORS AND USES THEREOF” (METACRINE, INC., priority 2018, published 2020)
